Assay results from US11427581B2, “JAK inhibitor and use thereof” (ZHUHAI UNITED LABORATORIES CO., LTD., priority 2018, dated 2022).
Where two headings read alike, the source gives them in different places.

What was measured:
JAK1 (h) = JAK1 (h) (Homo sapiens (Human), UniProt P23458); assay: In vitro activity assay of JAK1 kinase (radiometric 33P-ATP, Eurofins); format: biochemical; conditions: recombinant human JAK1
JAK2 (h) = JAK2 (h) (Homo sapiens (Human), UniProt O60674); assay: In vitro activity assay of JAK2 kinase (radiometric 33P-ATP, Eurofins); format: biochemical; conditions: recombinant human JAK2
JAK3 (h) = JAK3 (h) (Homo sapiens (Human), UniProt P52333); assay: In vitro activity assay of JAK3 kinase (radiometric 33P-ATP, Eurofins); format: biochemical; conditions: recombinant human JAK3
Protocol: (§1) Recombinant human-derived JAK1, JAK2, JAK3, Tyk2 protease, main instruments and reagents were provided by Eurofins in the UK
(§2) JAK2, JAK3 and TYK2 dilution: 20 mM MOPS, 1 mM EDTA, 0.01% Brij-35.5% glycerol, 0.1% β-mercaptoethanol. 1 mg/mL BSA; JAK1 dilution: 20 mM TRIS, 0.2 mM EDTA, 0.1% β-mercaptoethanol, 0.01% Brij-35.5% glycerol. All compounds were prepared as 100% DMSO solutions, and the concentration of the compound reached 50 times the final measured concentration. The test compound was diluted with a 3-fold concentration gradient, the final concentration was 10 μM to 0.001 μM in total 9 concentrations, and the content of DMSO in the detection reaction was 2%. The working stock solution of the compound was added to the wells as the first component of the reaction, and then the remaining components were added according to the protocol detailed below.
(§3) JAK3 (h) was incubated with 8 mM MOPS pH 7.0, 0.2 mM EDTA, 500 μM […], 10 mM magnesium acetate and [γ-^33P]-ATP (activity and concentration were formulated as needed). Mg/ATP mixture was added to initiate the reaction. After incubating at room temperature for 40 minutes, the reaction mixture was added with 0.5% phosphoric acid to stop the reaction. Then 10 μL the reaction solution was spotted on a P30 filter pad and washed with 0.425% phosphoric acid three times and methanol once over 4 minutes, dried, and counted scintillation.
(§4) The IC50 results were analyzed by XLFIT5 (205 formula) of IDBS Company, see Table 1 for details.

TYK2 (h) = TYK2 (h) (Homo sapiens (Human), UniProt P29597); assay: In vitro activity assay of TYK2 kinase (radiometric 33P-ATP, Eurofins); format: biochemical; conditions: recombinant human TYK2
Protocol: as §1, §2
as §3, with “TYK2” for “JAK3”, “250” for “500”, “μL” for “μL the”, “reaction” for “reaction solution”
as §4

[1] = Pharmacokinetic (PK) assay in rat; format: in vivo; conditions: male SD rat; for Bioavailability: gavage vs tail vein; for Cmax: read-out: Cmax (peak concentration)
Protocol: The clear solution obtained by dissolving the test compound was injected into male mice (C57BL/6) or rats (SD) by tail vein and gavage respectively (overnight fasting, 7-8 weeks old). […] The drug concentration on blood was determined by LC-MS/MS, the related pharmacokinetic parameters were calculated by the linear logarithm trapezoid method of non atrioventricular model by WinNonlin™ Version 6.3.

[2] = system: adjuvant-induced arthritis rat model; assay: In vivo drug efficacy study in an adjuvant-induced arthritis model (AIA); conditions: for average foot volume of arthritis rat: vehicle 2.8 mL
[3] = tail vein and gavage groups, route of the parameter and dose not given
[4] = 15 mg/kg p.o. bid 14 d, end of the experiment (27th day)
[5] = 15 mpk p.o. bid 14 d, end of the experiment (27th day), vehicle peak about 8.5

Sequence of JAK2 (h) (O60674 whole entry): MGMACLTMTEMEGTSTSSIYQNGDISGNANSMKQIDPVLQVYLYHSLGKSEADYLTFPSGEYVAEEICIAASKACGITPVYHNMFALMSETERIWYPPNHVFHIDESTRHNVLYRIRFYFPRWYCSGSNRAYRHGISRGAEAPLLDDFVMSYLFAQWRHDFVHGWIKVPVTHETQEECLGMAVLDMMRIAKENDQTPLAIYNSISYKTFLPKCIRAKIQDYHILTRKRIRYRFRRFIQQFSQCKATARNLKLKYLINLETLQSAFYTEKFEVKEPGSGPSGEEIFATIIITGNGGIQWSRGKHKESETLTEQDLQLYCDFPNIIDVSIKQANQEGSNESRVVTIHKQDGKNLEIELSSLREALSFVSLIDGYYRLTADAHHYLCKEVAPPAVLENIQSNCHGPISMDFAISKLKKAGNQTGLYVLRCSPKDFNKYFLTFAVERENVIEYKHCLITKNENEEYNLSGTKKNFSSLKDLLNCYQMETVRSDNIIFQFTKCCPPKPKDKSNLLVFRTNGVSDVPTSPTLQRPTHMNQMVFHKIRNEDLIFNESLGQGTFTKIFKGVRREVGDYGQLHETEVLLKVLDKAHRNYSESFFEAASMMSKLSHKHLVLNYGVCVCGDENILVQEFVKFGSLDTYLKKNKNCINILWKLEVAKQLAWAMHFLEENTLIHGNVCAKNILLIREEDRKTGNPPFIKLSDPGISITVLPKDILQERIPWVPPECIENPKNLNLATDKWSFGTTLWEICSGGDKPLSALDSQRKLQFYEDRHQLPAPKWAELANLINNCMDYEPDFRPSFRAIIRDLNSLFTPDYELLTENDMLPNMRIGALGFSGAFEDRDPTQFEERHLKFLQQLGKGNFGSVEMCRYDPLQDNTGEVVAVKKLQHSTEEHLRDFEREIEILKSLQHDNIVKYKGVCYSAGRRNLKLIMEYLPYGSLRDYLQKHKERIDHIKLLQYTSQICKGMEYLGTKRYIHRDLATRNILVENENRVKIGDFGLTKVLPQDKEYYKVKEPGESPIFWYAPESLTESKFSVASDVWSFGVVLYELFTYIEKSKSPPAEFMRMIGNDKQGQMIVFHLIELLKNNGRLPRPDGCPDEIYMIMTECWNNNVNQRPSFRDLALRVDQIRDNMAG
Sequence of TYK2 (h) (P29597 whole entry): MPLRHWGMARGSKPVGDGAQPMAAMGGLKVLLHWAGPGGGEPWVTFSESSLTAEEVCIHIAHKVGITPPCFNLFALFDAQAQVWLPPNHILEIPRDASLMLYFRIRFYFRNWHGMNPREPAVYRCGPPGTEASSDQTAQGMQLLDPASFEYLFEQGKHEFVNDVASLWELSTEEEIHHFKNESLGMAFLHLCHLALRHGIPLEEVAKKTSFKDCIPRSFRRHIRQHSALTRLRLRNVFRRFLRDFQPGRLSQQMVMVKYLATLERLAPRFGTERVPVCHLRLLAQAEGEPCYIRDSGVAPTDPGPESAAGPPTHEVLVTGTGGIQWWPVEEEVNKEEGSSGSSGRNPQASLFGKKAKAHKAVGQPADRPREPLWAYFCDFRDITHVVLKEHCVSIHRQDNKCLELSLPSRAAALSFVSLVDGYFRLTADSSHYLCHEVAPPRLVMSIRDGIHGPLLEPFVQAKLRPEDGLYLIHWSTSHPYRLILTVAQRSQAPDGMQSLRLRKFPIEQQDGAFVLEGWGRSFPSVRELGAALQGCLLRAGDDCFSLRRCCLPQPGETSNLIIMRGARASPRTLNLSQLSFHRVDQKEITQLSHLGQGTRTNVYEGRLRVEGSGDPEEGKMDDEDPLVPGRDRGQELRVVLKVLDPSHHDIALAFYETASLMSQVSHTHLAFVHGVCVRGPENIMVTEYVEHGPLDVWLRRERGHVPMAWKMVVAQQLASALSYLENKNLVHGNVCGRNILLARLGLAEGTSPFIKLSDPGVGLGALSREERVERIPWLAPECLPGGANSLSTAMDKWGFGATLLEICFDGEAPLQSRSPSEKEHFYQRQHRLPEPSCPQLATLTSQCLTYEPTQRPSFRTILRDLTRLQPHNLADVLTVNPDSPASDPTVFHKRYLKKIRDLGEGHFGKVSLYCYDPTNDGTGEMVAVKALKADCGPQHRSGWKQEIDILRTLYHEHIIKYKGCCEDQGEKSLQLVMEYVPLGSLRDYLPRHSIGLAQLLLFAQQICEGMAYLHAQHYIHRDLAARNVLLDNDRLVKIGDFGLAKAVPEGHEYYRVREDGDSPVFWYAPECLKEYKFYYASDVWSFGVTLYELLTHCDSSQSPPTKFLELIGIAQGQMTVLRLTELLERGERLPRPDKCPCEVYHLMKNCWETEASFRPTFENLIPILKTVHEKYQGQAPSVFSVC
Sequence of JAK3 (h) (P52333 whole entry): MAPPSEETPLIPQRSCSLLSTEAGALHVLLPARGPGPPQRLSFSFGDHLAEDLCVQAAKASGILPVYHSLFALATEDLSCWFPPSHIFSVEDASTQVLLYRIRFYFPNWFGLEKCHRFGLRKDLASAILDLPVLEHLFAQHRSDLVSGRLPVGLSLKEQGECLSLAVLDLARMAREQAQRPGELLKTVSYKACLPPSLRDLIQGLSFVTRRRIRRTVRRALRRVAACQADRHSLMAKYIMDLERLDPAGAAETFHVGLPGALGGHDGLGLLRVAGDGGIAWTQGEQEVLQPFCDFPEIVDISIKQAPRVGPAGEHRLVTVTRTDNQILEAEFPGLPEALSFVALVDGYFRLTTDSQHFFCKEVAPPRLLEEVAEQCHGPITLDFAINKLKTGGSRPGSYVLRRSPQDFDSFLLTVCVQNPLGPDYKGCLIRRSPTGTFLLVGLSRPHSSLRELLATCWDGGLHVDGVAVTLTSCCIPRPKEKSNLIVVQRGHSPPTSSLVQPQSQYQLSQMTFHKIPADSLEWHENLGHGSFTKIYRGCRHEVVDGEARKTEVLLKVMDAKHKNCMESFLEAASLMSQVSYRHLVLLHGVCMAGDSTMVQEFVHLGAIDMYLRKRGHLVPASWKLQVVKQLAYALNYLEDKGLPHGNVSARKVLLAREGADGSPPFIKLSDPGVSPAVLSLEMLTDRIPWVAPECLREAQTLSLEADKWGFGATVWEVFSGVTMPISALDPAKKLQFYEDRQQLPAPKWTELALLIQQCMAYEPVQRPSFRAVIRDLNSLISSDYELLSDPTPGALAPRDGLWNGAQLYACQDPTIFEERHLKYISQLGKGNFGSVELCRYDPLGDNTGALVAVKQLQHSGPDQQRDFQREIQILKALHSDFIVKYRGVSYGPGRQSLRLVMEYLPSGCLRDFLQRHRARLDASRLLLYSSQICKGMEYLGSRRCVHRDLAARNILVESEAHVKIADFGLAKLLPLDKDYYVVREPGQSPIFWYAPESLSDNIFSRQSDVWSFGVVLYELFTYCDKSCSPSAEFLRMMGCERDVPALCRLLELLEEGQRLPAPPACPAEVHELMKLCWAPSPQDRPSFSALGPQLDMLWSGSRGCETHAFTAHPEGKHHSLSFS
Sequence of JAK1 (h) (P23458 whole entry): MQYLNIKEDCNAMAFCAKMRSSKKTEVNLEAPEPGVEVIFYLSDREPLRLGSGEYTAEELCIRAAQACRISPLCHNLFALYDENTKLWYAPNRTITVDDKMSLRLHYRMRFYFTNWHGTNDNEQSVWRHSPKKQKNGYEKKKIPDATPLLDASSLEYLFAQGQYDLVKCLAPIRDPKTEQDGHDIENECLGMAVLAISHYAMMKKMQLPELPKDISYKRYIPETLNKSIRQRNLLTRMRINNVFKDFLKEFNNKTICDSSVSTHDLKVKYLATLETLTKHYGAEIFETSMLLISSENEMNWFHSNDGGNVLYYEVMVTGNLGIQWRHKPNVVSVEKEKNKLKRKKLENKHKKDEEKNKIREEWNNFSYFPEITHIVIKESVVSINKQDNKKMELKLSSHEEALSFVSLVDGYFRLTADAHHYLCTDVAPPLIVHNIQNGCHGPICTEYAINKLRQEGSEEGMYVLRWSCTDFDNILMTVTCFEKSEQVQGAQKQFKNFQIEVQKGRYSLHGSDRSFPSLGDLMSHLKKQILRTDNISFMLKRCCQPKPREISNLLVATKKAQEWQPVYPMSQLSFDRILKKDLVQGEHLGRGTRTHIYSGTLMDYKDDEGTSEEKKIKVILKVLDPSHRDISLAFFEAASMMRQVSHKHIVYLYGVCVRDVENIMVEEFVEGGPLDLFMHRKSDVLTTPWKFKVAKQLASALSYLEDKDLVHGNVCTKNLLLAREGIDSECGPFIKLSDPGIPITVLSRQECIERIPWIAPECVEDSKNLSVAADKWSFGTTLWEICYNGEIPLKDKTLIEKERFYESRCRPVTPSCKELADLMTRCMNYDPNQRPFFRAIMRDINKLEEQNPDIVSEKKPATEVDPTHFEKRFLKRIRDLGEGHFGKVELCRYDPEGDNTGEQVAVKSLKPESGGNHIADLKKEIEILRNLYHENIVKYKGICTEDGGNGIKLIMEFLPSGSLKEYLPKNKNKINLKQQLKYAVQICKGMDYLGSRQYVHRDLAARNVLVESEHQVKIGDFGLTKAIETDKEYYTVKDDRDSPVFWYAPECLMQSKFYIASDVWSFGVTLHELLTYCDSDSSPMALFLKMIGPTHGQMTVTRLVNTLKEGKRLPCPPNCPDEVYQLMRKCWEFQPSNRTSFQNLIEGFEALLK

IC50 (JAK1 (h)) [nM]	SMILES	IC50 (JAK2 (h)) [nM]	IC50 (JAK3 (h)) [nM]	IC50 (TYK2 (h)) [nM]	other results
	O=C(Nc1nc2cccc(C3CCC(NC(=O)C4CC4(F)F)CC3)n2n1)C1CC1 (centres unmarked) [Compound 4-2]		2050	10	Bioavailability [1]: 58.6%; AUC0-inf [1, 3]: 11.021 µM·h; T1/2 (half-life) [1, 3]: 2.22 h; Cmax [1, 3]: 13.4 µM
	O=C(Nc1nc2cccc(C3=CC[C@@H](NC(=O)[C@@H]4CC4(F)F)CC3)n2n1)C1CC1 [Compound 3-1]	141	5520	78	Bioavailability [1]: 30.0%; AUC0-inf [1, 3]: 19.967 µM·h; T1/2 (half-life) [1, 3]: 3.11 h; Cmax [1, 3]: 3.8 µM
163	O=C(Nc1nc2cccc(C3=CC[C@@H](NC(=O)[C@H]4CC4(F)F)CC3)n2n1)C1CC1 [Compound 3-2]			1370	
149	O=C(Nc1nc2cccc(C3=CCC(NC(=O)C4CC4)CC3)n2n1)C1CC1 (centres unmarked) [Compound 1-12]	1420	> 10000	497	
531	O=C(Nc1nc2cccc(C3=CCN(C(=O)C4(F)CC4)C3)n2n1)C1CC1 [Compound 6-2]	1120	> 10000	2870	
70	O=C(Nc1nc2cccc(C3=CCN(C(=O)C4CC4(F)F)C3)n2n1)C1CC1 (centres unmarked) [Compound 6-1]		> 10000	244	
90	O=C(Nc1nc2cccc(C3=CCN(C(=O)C4CC4)CC3)n2n1)C1CC1 [Compound 5-4]	422	> 10000	178	
31	O=C(Nc1nc2cccc(C3CCC(NC(=O)C4(F)CC4)CC3)n2n1)C1CC1 (centres unmarked) [Compound 4-3]	360	4380	127	Bioavailability ([1]; blood, po, read-out: Bioavailability): 89.8%; AUC0-inf ([1]; blood, po, tail vein and gavage groups, route of the parameter and dose not given, read-out: AUC0-inf): 85.8 µM·h; Cmax ([1]; blood, po, tail vein and gavage groups, route of the parameter and dose not given): 24.8 µM; half-life ([1]; blood, po, tail vein and gavage groups, route of the parameter and dose not given, read-out: T1/2 (half-life) (converted)): 2.86 h; average foot volume of arthritis rat [2, 4]: 1.5 mL; clinical score of arthritis rats [2, 5]: 2.6; inhibition at 15 mg/kg ([2]; Rattus norvegicus, po, 336 h, 15 mg/kg p.o. bid 14 d, read-out: inhibition rate relative to the vehicle control group (foot volume curve AUC)): 32.3%
166	O=C(Nc1nc2cccc(C3=CC[C@H](NC(=O)[C@@H]4CC4(F)F)CC3)n2n1)C1CC1 [Compound 3-3]			942	
	C[C@@H]1C[C@H]2[C@@H]3CCC4=CC(=O)C=C[C@]4(C)[C@@]3(F)[C@@H](O)C[C@]2(C)[C@@]1(O)C(=O)CO [Dexamethasone, reference compound]				inhibition rate relative to the vehicle control group (foot volume curve AUC) ([2]; 0.3 mg/kg p.o. qd 14 d): 44.9%; average foot volume of arthritis rat ([2]; 0.3 mg/kg p.o. qd 14 d, end of the experiment): 1.1 mL; clinical score of arthritis rats ([2]; 0.3 mg/kg p.o. qd 14 d, from the 23rd day until the end of the experiment): about 2.0
	O=C(Nc1nc2cccc(C3=CCC(NC(=O)C4CC4(F)F)CC3)n2n1)C1CC1 (centres unmarked) [Compound 1-7]	239	3110	73	Bioavailability [1]: 75.2%; AUC0-inf [1, 3]: 18.033 µM·h; T1/2 (half-life) [1, 3]: 2.07 h; Cmax [1, 3]: 23.9 µM

SMILES	IC50 (JAK1 (h)) [nM]	IC50 (JAK2 (h)) [nM]	IC50 (JAK3 (h)) [nM]	IC50 (TYK2 (h)) [nM]	other results
O=C(Nc1nc2cccc(C3CCC(NC(=O)[C@@H]4CC4(F)F)CC3)n2n1)C1CC1 (single isomer, unassigned) [Compound 8-1]	111	861	> 10000	633	
O=C(Nc1nc2cccc(C3=CC[C@H](NC(=O)[C@H]4CC4(F)F)CC3)n2n1)C1CC1 [Compound 3-4]	17	126	2550	71	
O=C(Nc1nc2nccc(C3CCC(NC(=O)C4CC4(F)F)CC3)c2s1)C1CC1 (centres unmarked) [Compound 10-9]	2290	> 10000	> 10000	245	
O=C(Nc1nc2cccc(C3CCC(NC(=O)[C@H]4CC4(F)F)CC3)n2n1)C1CC1 (single isomer, unassigned) [Compound 8-2]	2		957	24	inhibition rate relative to the vehicle control group (foot volume curve AUC) ([2]; 5 mg/kg p.o. bid 14 d): 38.0%; average foot volume of arthritis rat ([2]; 5 mg/kg p.o. bid 14 d, end of the experiment (27th day)): 1.4 mL; inhibition rate relative to the vehicle control group (foot volume curve AUC) ([2]; 15 mg/kg p.o. bid 14 d): 44.5%; average foot volume of arthritis rat [2, 4]: 1.1 mL; clinical score of arthritis rats ([2]; 5 mpk p.o. bid 14 d, end of the experiment (27th day), vehicle peak about 8.5): 2.7; clinical score of arthritis rats [2, 5]: 1.0; body weight of arthritis rats ([2]; dose groups 5 and 15 mg/kg p.o. bid, weight decreased from the 15th to the 17th day): began to recover slowly on the 19th day
O=C(Nc1nc2cccc(C3CCC(NC(=O)[C@@H]4CC4(F)F)CC3)n2n1)C1CC1 (single isomer, unassigned) [Compound 8-3]	494	5770	> 10000	3440	
O=C(Nc1nc2cccc(C3CCC(NC(=O)[C@H]4CC4(F)F)CC3)n2n1)C1CC1 (single isomer, unassigned) [Compound 8-4]	442	3750	> 10000	2440	
